# Experimental data published in a melting point compilation (Tetko et al.; mined from patent text by program, amines drawn as free bases though some values may be those of a salt).
row,SMILES,melting point
1,CCC(C)(C)NC(=O)NC1=CC(=O)OC1,169 to 171 °C
2,O=C(NCc1ccc(Cl)cc1)c1cn2c3c(cc(CN4CCOCC4)cc3c1=O)OC(CN1CCCCC1)C2 (stereo not given),213 to 215 °C
3,O=S1(=O)NC(C2CCCC2)Nc2ccc(S(=O)(=O)N3CCCCC3)cc21 (stereo not given),258 to 260 °C
4,Cc1nn(-c2ccc(C#N)c(Cl)c2)c(C)c1Oc1ccc(C(=O)N2CCOCC2)cc1,156 to 157 °C
5,Cc1nc(-c2ccc(O)cc2)[nH]c1Br,205 to 212 °C
6,CN(Cc1ccc(S(C)=O)cc1)S(=O)(=O)c1cn(S(=O)(=O)N(C)C)c(C#N)n1 (stereo not given),126 °C
7,CS(=O)(=O)Nc1ccc(OCCN2CCN(C(=O)c3ccc(NS(C)(=O)=O)cc3)CC2)cc1,170 to 175 °C
8,CCn1c2cc(C(F)(F)F)ccc2c2oc(C(=O)Cl)cc21,124 to 126 °C
9,COc1ccc(C2(O)CC3CCC(C2)N3C)cc1 (stereo not given),162 °C
10,CC(C)(C)C(=O)C(=C1SCCS1)n1cncn1,141 °C
11,CC(=O)C(O)C1OC(n2cc(C#N)c(=O)[nH]c2=O)CC1C(C)=O (stereo not given),160 to 162 °C
12,CCOC(=O)C1=CNc2ccnn2C1,198 to 200 °C
13,C#CCOc1cc(OCC=C)ccc1-c1nc2cnccc2[nH]1,195 °C
14,COc1cc(C=O)ccc1OCCCCl,53 to 55 °C
15,CCC1(C)NC(=O)c2ccccc2O1 (stereo not given),76 to 78 °C
16,OCC#Cc1ccc(Br)cn1,121 to 122 °C
17,CN1C(=O)CCc2c1ccc(Sc1cccc(C3(C)CC(O)CCO3)c1)c2F (stereo not given),141 to 142 °C
18,CCN(C(=O)OC(C)(C)C)C1CC=C(c2c[nH]c3ccc([N+](=O)[O-])cc23)CC1 (stereo not given),217 to 219 °C
19,Cn1nc(C(F)(F)F)nc1Oc1cc(On2c(=O)cc(C(F)(F)F)n(C)c2=O)c(F)cc1Cl,138 to 140 °C
20,CC(=O)Nc1ccc(C#N)c(F)c1F,175 to 177 °C
21,CCCCCCCCNC(=O)C1=C(C(=O)Nc2cc(OC3CCCC3)c(Cl)cc2F)CCCC1,127 to 130 °C
22,OC[C@@H](O)[C@@H](O)[C@H](O)[C@H](O)CCl,125 to 127 °C
23,CCNC(=NC#N)NCc1cccnc1,177 to 179 °C

row,SMILES,melting point
1,COCCN1C(=S)N(c2ccc(C#N)c(C(F)(F)F)c2)C(=O)C1(C)C,98 to 99 °C
2,CC1(Br)Cc2cc(C(=O)O)ccc2C1=O (stereo not given),203 to 205 °C
3,CCCCc1nc(C(F)(F)F)c(C(=O)OCC)n1O,77.5 to 80.5 °C
4,CC(C)(C)OC(=O)C1C(C#CC(=O)OCC(Cl)(Cl)Cl)C1(C)C (stereo not given),70 to 71 °C
5,COc1ccc2c(c1)CCC(C(=O)Cl)C2 (stereo not given),162 to 164 °C
6,Cc1ccc(N2C(=O)C=CC2=O)cc1N1C(=O)C=CC1=O,168 to 172 °C
7,Clc1cccc(-c2cc(OCC3CO3)no2)c1 (stereo not given),86 to 87 °C
8,CCOC(CNN)OCC,126 to 127 °C
9,CC(C)(C)N1C(=O)C(=O)N(c2cc(Cl)cc(Cl)c2)S1=O (stereo not given),182 °C
10,CC1(C)OC(=O)Nc2ccc(-c3cccc([N+](=O)[O-])c3)cc21,244 to 245 °C
11,CCC1=C(C)C(=O)NC1C (stereo not given),83 °C
12,CCCCCCCCCCNC(=O)C=Cc1cccc(NC(=O)/C=C\C(=O)O)c1,187 to 188 °C
13,Cc1nc(N)c(Br)c(NNCc2cncc(Br)c2)n1,221 to 222 °C
14,CCC(CC)Nc1c(NCc2ccc(Cl)c(Cl)c2)c(=O)c1=O,268 to 269 °C
15,CCSc1cnc(Cl)cc1C#N,112 to 114 °C
16,CSc1nc(OCC(F)(F)F)nc2sc(C)cc12,97 °C
17,CC(C)(C)c1ccc(OCCCCCN2CCN(c3nccs3)CC2)cc1,71 to 73 °C
18,CNC(=O)NS(=O)(=O)c1cc2c(cc1OC)OCC(NC(=O)c1cc(F)ccc1OC)C2 (stereo not given),260 °C
19,O=C(O)c1cn(C2CCCCC2)c2c(F)c(F)c(F)cc2c1=O,261 to 264 °C
20,Nc1cc(CN2CCC2)cc(C(F)(F)F)c1,60 to 61 °C
21,CCOC(=O)c1c(N)c(C)c(C)n1C,63 to 64 °C
22,NC(=S)Nc1ccccc1O,161 °C
23,CS(=O)(=O)Nn1c(=O)[nH]c2cc([N+](=O)[O-])c(-n3cnc(CO)c3)cc2c1=O,> 300 °C

# The remaining lines, values ahead:
row,melting point,SMILES
1,86 to 88 °C,Clc1ccc(Oc2cc(Br)c(Cl)cc2OCc2ccccc2)c(Cl)c1
2,73 to 79 °C,O=C(CCCCl)c1ccc2ccccc2c1O
3,145 to 150 °C,CCCCCCC(C(=O)N1CCC[C@H]1C(=O)O)n1cnc2cc(-c3ccccc3-c3nn[nH]n3)ccc21 (stereo not given in full)
4,216 to 218 °C,CC(C(=O)O)c1ccc2cc(OCc3ccc4ccccc4c3)ccc2c1 (stereo not given)
5,167 to 169 °C,O=C(NC(=O)c1c(F)cccc1F)Nc1cc(C(F)(F)F)ccn1
6,99 to 100 °C,CCOCc1cnc(NC(=O)C(Cc2ccc(F)cc2)c2ccc(S(C)(=O)=O)cc2)cn1 (stereo not given)
7,> 250 °C,CCc1ccc(Nc2nc3cc(NC(=O)c4ccc(CC)cc4)ccc3o2)cc1
8,130 °C,CCC(C#N)c1cccc(C(=O)c2cc3cc(C(=O)OC)sc3s2)c1 (stereo not given)
9,183 to 185 °C,CCOC(=O)C1C(=O)CC(C)(O)C(C(=O)OCC)C1c1ccc2c(C)c(C)oc2c1 (stereo not given)
10,210 to 212 °C,CCc1nc(OC)c(NC(=O)N2CCN(c3cc(Cl)cc(Cl)c3)CC2)cc1C(=O)Nc1cc(CO)cc(Nc2c3ccccc3nc3ccccc23)c1
11,134 to 136 °C,O=C1c2ccccc2C(=O)N1C(Cc1ccccc1)C1CC(Cc2ccccc2)=NO1 (stereo not given)
12,80 °C,CCOC(=O)CC1NCCN(CCc2c[nH]c3ccccc23)C1=O (stereo not given)
13,247 to 249 °C,Cn1c(-c2ccc(C(=N)N)cc2)nc2cc(C(=O)NCCC(=O)O)ccc21
14,183 to 185 °C,CCOc1nc2cccc(C(=O)O)c2n1Cc1ccc(-c2ccccc2)c(-c2nnn[nH]2)c1
15,188 to 189 °C,O=C1C=C(c2c(-c3ccccc3)nn3ccccc23)CCN1
16,132 to 133 °C,N=C(Nc1ccccc1-c1ccc(F)cc1)N1CCC(O)CC1
17,214 to 216 °C,CC(C)Cn1cnc2c(N)nc3ccc(OCc4ccccc4)cc3c21
18,88 to 89 °C,FC(F)(F)c1cc(Cl)c(-n2cc(I)c(-c3ccccc3)n2)c(Cl)c1
19,105 to 106 °C,COC(=O)c1c(C)cc(-c2ccccc2)nc1-c1cccc([N+](=O)[O-])c1
20,188 to 192 °C,Cn1c2ccccc2c2cc(C=O)c3ccccc3c21
21,160 to 161 °C,Nc1ccc(-c2nc3ccccc3s2)cc1Br
22,197 to 199 °C,CCOC(=O)N1C(c2ccccc2)OC(=O)C1c1ccccc1 (stereo not given)
23,> 300 °C,Nc1nc(Nc2ccc(S(N)(=O)=O)cc2)sc1C(=O)c1ccc(C(=O)Oc2ccccc2)cc1
24,120 to 121 °C,COc1ccc(N2CCN(c3c(C)c(C)c4c(c3C)C(OCc3ccccn3)C(C)(C)O4)CC2)cc1 (stereo not given)
25,238 to 239 °C,O=C1c2ccccc2C(=O)N1CC(=O)N1c2ccccc2N(Cc2ccc3ccccc3c2)C(=O)C2CCCC21 (stereo not given)
26,103 to 105 °C,CCCCOC(=O)Cc1ccc(N2CCN(CCc3cc(C(C)(C)C)c(O)c(C(C)(C)C)c3)CC2)cc1
27,252 °C,N=C(NO)c1cnn2c(C(F)(F)F)cc(-c3ccc(C(F)(F)F)cc3)nc12

row,melting point,SMILES
1,197 to 200 °C,CC1=c2c(cc3c(c2C)C=C(C(=O)OCc2ccccc2)N=3)N=C1C(=O)OCc1ccccc1
2,155 to 167 °C,CC(C)(C)OC(=O)Nc1ccc(-c2ccc(F)cc2)cc1[N+](=O)[O-]
3,158 °C,COC(=O)C1=C(C)NN=C(c2ccccc2)C1c1ccccc1 (stereo not given)
4,158 to 160 °C,COc1cc(C(=O)c2c(N)sc3c2CCN(C(=O)c2ccccc2)C3)ccc1OC(C)C
5,120 to 122 °C,Oc1ccc2cc(CNCc3ccccc3)ccc2c1
6,117 to 121 °C,CS(=O)c1ccc(COC(=O)N2CCN(CC3(C)Cn4cc([N+](=O)[O-])nc4O3)CC2)cc1 (stereo not given)
7,75.5 to 76.5 °C,CCOC(=O)C(S)CC(=O)c1ccc(Oc2ccc(Cl)cc2)cc1 (stereo not given)
8,158 to 161 °C,CC(C)C[C@H](NC(=O)[C@H](Cc1c[nH]cn1)NC(=O)[C@H](Cc1cccc2ccccc12)NC(=O)OCc1ccccc1)[C@@H](O)CC(N)=O
9,159 to 161 °C,O=C1N(N2CCOCC2)c2ccccc2C1(Cc1ccccc1)c1ccccc1 (stereo not given)
10,74 to 75 °C,O=C1CCC(c2ccc(-c3ccccc3F)cc2)O1 (stereo not given)
11,123 °C,Clc1ccc(C2(CBr)OCC(COc3ccc(Cl)c4ccccc34)O2)c(Cl)c1 (stereo not given)
12,182 °C,C[C@H]1C(=O)OCCN1CC=CC(=O)Nc1cc2c(Nc3ccc(F)c(Cl)c3)ncnc2cc1OCC1CC1
13,199 to 200 °C,O=c1c2cc(F)c(Cl)nc2n(-c2ccccc2F)c(=O)n1OCc1ccccc1
14,66 °C,O=C(c1cccs1)c1cnn2c(-c3cccc(-c4ccn(Cc5ccccn5)n4)c3)ccnc12
15,73 to 77 °C,CCOC(=O)c1cc2c(nc1C(=O)OCC)OCC2O (stereo not given)
16,127 to 130 °C,CC(=O)Nc1ccc(OC/C=C(\C)C=O)cc1
17,148 to 150 °C,CC(C)(C)OC(=O)N1CC=C(c2cnc(COc3ccc(S(C)(=O)=O)cc3)cc2Cl)CC1
18,91 to 92 °C,O=C(Nn1ccnc1)N1CCCCC1COCc1ccccc1Cl (stereo not given)
19,194 to 196 °C,O=c1ccn(CCO)c(C(O)c2cccs2)c1OCc1ccccc1 (stereo not given)
20,116 to 117 °C,CC(=Cc1ccccc1Br)c1ccc2c(c1)C(C)(C)CCC2(C)C
21,43 to 44 °C,COC(=O)c1cc(Br)ccc1Cl
22,67 to 69 °C,CCOC(=O)C1CCc2c(c3ccccc3n2C(=O)c2ccccc2)C1 (stereo not given)
23,156 to 159 °C,COc1cc2c(cc1OC)CN(c1c(C)c(C)c3c(c1C)C(c1ccc(C)cc1)C(C)(C)O3)C2 (stereo not given)
24,108 to 110 °C,[N-]=[N+]=N[C@@H](C(=O)O)C(c1ccccc1)c1ccccc1
25,279 to 282 °C,O=C(O)c1cc(C(=O)O)c2cc(Cc3ccc(F)cc3)cnc2c1O
26,95 to 105 °C,COS(=O)(=O)Oc1ccc(-c2cccc(-c3nc(C(C)C)[nH]c3-c3cccc(C)n3)c2)cc1
27,120 to 122 °C,Cc1cccc(CC(Nc2ccccc2)C(=O)NC(C#N)COCc2cccc(-c3nnn[nH]3)c2)c1 (stereo not given)
